Test results published in patent US20060178311A1, “Control of lactation” (Hannah Research Institute, priority 2003, published 2006).
Ends that are not written are not given here.

Tested on: mammary acini from tissue of lactating mice
Assay: Mammary acini culture bioassay: secretion of [3H]leucine-labelled protein
Format: cell-based, mouse
Settings: 0.01-10.0 μM, singly or in combination, 2 hours
Method: Mammary cells were prepared from tissue of lactating mice by collagenase digestion according to the method of K Hendry, K Simpson, K Nicholas & C Wilde. Journal of Molecular Endocrinology 21: 169-177 (1998). The resultant suspension of mammary acini consisted predominantly of groups of 50-200 cells, and was cultured in medium (Medium 199/Ham's F12: 50:50 v/v) containing insulin (5 μg/ml), hydrocortisone (0.1 μg/ml) and prolactin (1 μg/ml). Culture density was 1.5×10^6 cells/ml, and cells were maintained at 37° C. in an atmosphere of 5% CO2 in air. Protein synthesis and secretion were measured by continuous labelling with L-[4.5-3H]leucine ([…]; 10-20 μCi/ml) for 2 hours in the presence or absence of milk fractions (at concentrations of 0.2-4.0 μg/ml) or synthetic peptides (0.01-10 μM). […] Radiolabel incorporation was measured by precipitation with trichloroacetic acid (final concentration 10% w/v). […]
The amount of radiolabelled protein secreted by acini in the presence of milk extracts or synthetic peptides was expressed as a percentage of that produced by the cells to which no milk fraction or peptide was added. […]
Protein secretion was measured in mammary acini cultures in the presence and absence of synthetic peptides. […]

Sequence | effect of synthetic peptides on protein secretion
RPKHPIKHQG [Peptide A] | inhibitory action
AVAVSQEAN (also: C-terminal cysteine) [Peptide B, nine amino acid synthetic peptide] | stimulatory effect
